Results from ChEMBL document CHEMBL1201862, “PubChem BioAssay data set” (2004).
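Exposure lasted 48 hours, with cells grown in 96-well plates and compounds tested at five concentrations. Abbreviation: GI50, concentration required for 50% inhibition of growth.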 Calls of active or inactive are those of the source. Cut-off read from the data, not from the text of the source: active = GI50 up to about 1.1 µM and inactive = higher.

Legend:
Test in all cases: growth of human tumour cells (NCI), 48 h
[1] = test system: ACHN
[2] = test system: CCRF-CEM
[3] = test system: EKVX
[4] = test system: HOP-62
[5] = test system: IGROV-1
[6] = test system: K562
[7] = test system: NCI-H226
[8] = test system: OVCAR-3
[9] = test system: OVCAR-5
[10] = test system: OVCAR-8
[11] = test system: RPMI-8226
[12] = test system: RXF 393
[13] = test system: SK-MEL-2
[14] = test system: SNB-19
[15] = test system: SR
[16] = test system: SW-620
[17] = test system: TK-10
[18] = test system: UO-31
[19] = test system: NCI-H23
[20] = test system: U-251

Row | SMILES | GI50 [1] | GI50 [2] | GI50 [3] | GI50 [4] | GI50 [5] | GI50 [6] | GI50 [7] | GI50 [8] | GI50 [9] | GI50 [10] | GI50 [11] | GI50 [12] | GI50 [13] | GI50 [14] | GI50 [15] | GI50 [16] | GI50 [17] | GI50 [18] | GI50 [19] | GI50 [20]
1 | Cn1c(=O)n(CC2CS2)c2ccccc21 (configuration not stated) | > 100 µM (inactive) | 70 µM (inactive) | > 100 µM (inactive) | > 100 µM (inactive) | > 100 µM (inactive) | > 100 µM (inactive) | > 100 µM (inactive) | > 100 µM (inactive) | > 100 µM (inactive) | > 10 µM (inactive) | > 100 µM (inactive) | > 100 µM (inactive) | > 100 µM (inactive) | > 100 µM (inactive) | 99.3 µM (inactive) | > 100 µM (inactive) | > 100 µM (inactive) | > 100 µM (inactive) |  | 
2 | CC(C)(C)[Si](C)(C)OCC1OC(n2cnc3c(N)ncnc32)C2OC(=S)OC12 (configuration not stated) |  | 12.7 µM (inactive) |  | 36.7 µM (inactive) | 25 µM (inactive) | 4.84 µM (inactive) | 29.4 µM (inactive) | 29.2 µM (inactive) | 26.7 µM (inactive) | 35.1 µM (inactive) | 37.9 µM (inactive) | 43.9 µM (inactive) | 26 µM (inactive) | 52.1 µM (inactive) | 38.5 µM (inactive) | 32.7 µM (inactive) | > 100 µM (inactive) | 23.5 µM (inactive) | 21.8 µM (inactive) | 25.2 µM (inactive)
3 | CCCOP(=O)(OCCC)OC(C(F)(F)F)C(F)(F)F | > 100 µM (inactive) | > 100 µM (inactive) | > 100 µM (inactive) | > 100 µM (inactive) |  | > 100 µM (inactive) | > 100 µM (inactive) | > 100 µM (inactive) | > 100 µM (inactive) |  | > 100 µM (inactive) | 44.9 µM (inactive) | > 100 µM (inactive) | > 100 µM (inactive) | > 100 µM (inactive) |  | > 100 µM (inactive) | > 100 µM (inactive) | > 100 µM (inactive) | > 100 µM (inactive)
4 | CN1Cc2cc(O)c(O)cc2C(O)C1 (configuration not stated) | > 100 µM (inactive) | 34.8 µM (inactive) | > 100 µM (inactive) | > 100 µM (inactive) | > 100 µM (inactive) | > 100 µM (inactive) | > 100 µM (inactive) | > 100 µM (inactive) | > 100 µM (inactive) | > 100 µM (inactive) | > 100 µM (inactive) | > 100 µM (inactive) | > 100 µM (inactive) | > 100 µM (inactive) | 1.19 µM (inactive) | > 100 µM (inactive) | > 100 µM (inactive) | 83 µM (inactive) | > 100 µM (inactive) | > 100 µM (inactive)
5 | O=C(c1ccccc1)[C@H]1Nc2ccc(Cl)cc2[C@H]2OCCC[C@@H]12 | 31.3 µM (inactive) |  | 23.4 µM (inactive) | 18 µM (inactive) | 39 µM (inactive) | 22.6 µM (inactive) | 21.3 µM (inactive) | 14.9 µM (inactive) | 15.9 µM (inactive) | 20.9 µM (inactive) | 19.3 µM (inactive) | 17.3 µM (inactive) | 25.4 µM (inactive) | 27.6 µM (inactive) | 26.1 µM (inactive) | 17.3 µM (inactive) | 28.5 µM (inactive) | 15.9 µM (inactive) | 24.7 µM (inactive) | 17.3 µM (inactive)
6 | COc1cc(C2C3=C(CCC3=O)Oc3cc4c(cc32)OCO4)cc(OC)c1OC (configuration not stated) | 0.337 µM (active) | 0.318 µM (active) | 0.422 µM (active) | 0.0324 µM (active) | 0.67 µM (active) | 0.138 µM (active) |  | 0.136 µM (active) | 0.458 µM (active) | 0.596 µM (active) |  | 0.54 µM (active) |  | 0.692 µM (active) |  | 0.285 µM (active) | 0.417 µM (active) | 0.321 µM (active) | 0.39 µM (active) | 0.366 µM (active)
7 | O=C(Nc1ccccc1)C(=O)C(C(=O)c1ccccc1F)C1OC(=O)c2ccccc21 (configuration not stated) | 49.9 µM (inactive) | 29.5 µM (inactive) | 35 µM (inactive) | 42.8 µM (inactive) | 71.4 µM (inactive) | 44.7 µM (inactive) | 25.1 µM (inactive) |  | 81.5 µM (inactive) | 19.5 µM (inactive) | 35.1 µM (inactive) | 35.8 µM (inactive) | 23.9 µM (inactive) | 27.5 µM (inactive) | 21.5 µM (inactive) | 41.9 µM (inactive) | 69.2 µM (inactive) | 47.3 µM (inactive) | 47.3 µM (inactive) | 22.9 µM (inactive)
